US10377764B2, “Tricyclic heterocyclic compounds as phosphoinositide 3-kinase inhibitors” (Karus Therapeutics Limited, priority 2015, dated 2019)

How the values were obtained:
PI3K-p110β = PI3K-p110β (Homo sapiens, UniProt P42338); assay: Fold isoform selectivity from Ki determination, non-radiometric ADP-Glo assay (Proqinase); assay type: biochemical; conditions: class I PI3K isoforms
From the text: (§1) Fold isoform selectivity inhibition against class I PI3K isoforms, as confirmed following Ki determination using the non-radiometric ADP-Glo™ assay (Promega, Madison, Wis., USA) at Proqinase GmbH is listed below.

PI3K-p110δ = PI3K-p110δ (Homo sapiens, UniProt O00329); assay: as above; assay type: biochemical; conditions: class I PI3K isoforms
PI3K-p110δ, sequence (O00329 whole entry, canonical isoform): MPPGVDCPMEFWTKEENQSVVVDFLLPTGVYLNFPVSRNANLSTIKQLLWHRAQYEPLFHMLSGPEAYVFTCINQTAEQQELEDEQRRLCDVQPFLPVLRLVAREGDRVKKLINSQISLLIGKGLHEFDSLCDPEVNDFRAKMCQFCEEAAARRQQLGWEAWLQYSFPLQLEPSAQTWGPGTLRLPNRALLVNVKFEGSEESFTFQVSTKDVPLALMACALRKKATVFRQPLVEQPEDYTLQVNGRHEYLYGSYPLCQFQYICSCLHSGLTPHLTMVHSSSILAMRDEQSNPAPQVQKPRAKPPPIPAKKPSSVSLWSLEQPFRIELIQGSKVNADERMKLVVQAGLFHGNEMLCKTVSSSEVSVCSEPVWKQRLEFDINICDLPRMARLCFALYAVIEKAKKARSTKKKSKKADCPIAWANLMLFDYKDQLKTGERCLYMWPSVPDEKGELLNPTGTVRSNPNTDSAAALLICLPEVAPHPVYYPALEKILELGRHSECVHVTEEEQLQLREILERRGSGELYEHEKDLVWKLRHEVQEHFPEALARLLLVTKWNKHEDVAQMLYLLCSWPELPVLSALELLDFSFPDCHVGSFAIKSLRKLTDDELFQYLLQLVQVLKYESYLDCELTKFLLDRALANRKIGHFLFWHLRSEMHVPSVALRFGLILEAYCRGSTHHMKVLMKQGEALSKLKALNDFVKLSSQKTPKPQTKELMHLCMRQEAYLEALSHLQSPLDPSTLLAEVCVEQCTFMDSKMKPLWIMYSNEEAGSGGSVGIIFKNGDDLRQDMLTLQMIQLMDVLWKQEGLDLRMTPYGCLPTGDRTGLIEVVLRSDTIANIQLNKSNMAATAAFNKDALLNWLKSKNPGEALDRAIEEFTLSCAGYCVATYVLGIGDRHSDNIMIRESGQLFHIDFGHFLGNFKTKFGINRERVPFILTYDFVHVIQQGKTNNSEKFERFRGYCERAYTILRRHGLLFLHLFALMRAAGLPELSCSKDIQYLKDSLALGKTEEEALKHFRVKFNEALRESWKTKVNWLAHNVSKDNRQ
PI3K-p110δ, sequence (P27986 whole entry partner, canonical isoform): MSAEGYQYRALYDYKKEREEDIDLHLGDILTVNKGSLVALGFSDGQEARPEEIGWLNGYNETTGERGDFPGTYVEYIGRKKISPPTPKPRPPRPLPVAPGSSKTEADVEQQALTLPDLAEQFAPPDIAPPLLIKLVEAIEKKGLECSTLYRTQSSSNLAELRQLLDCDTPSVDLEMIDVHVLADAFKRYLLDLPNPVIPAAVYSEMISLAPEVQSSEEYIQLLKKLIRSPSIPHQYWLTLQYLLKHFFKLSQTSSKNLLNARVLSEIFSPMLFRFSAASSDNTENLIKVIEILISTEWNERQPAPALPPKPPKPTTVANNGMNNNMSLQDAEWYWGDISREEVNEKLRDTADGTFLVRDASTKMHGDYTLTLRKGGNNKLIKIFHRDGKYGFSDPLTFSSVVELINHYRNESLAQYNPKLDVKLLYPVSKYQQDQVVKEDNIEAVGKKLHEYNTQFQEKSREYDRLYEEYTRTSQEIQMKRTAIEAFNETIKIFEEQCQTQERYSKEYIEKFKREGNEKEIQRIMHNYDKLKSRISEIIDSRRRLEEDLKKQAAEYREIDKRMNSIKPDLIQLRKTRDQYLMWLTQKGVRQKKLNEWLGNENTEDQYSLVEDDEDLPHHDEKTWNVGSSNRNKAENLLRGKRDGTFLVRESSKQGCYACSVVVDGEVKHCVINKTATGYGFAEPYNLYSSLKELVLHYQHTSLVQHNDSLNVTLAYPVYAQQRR
From the text: as §1

[1] = Rodent pharmacokinetics: oral bioavailability and clearance, plasma; assay type: in vivo, mouse; conditions: for clearance: male, CD1, mouse, iv
Method: The following protocol was used to determine oral bioavailability and clearance.
The results are shown below. • Species=male mouse; • Strain=CD1, • n=3 male mice per time point per route; • Terminal blood sampling at 8 time points (5 min, 10 min, 0.5 hr, 1 hr, 3 hr, 6 hr, 8 hr and, 24 hr); • Collection of plasma, bio-analysis and report of pharmacokinetic parameters.
Formulation: 10% DMSO, 15% Cremophor, 75% Saline
Dosing: 10 mg/kg P.O. and 5 mg/kg I.V.
The results are shown below. • Species=male mouse; • Strain=CD1, • n=3 male mice per time point per route; • Terminal blood sampling at 8 time points (5 min, 10 min, 0.5 hr, 1 hr, 3 hr, 6 hr, 8 hr and, 24 hr); • Collection of plasma, bio-analysis and report of pharmacokinetic parameters. • Formulation: 10% DMSO, 90 & saline

[2] = IV, 5 mg/kg, male CD1 mouse plasma, free base
[3] = PO, 10 mg/kg, male CD1 mouse plasma, free base

PI3K-p110β, sequence (P42338 whole entry, canonical isoform): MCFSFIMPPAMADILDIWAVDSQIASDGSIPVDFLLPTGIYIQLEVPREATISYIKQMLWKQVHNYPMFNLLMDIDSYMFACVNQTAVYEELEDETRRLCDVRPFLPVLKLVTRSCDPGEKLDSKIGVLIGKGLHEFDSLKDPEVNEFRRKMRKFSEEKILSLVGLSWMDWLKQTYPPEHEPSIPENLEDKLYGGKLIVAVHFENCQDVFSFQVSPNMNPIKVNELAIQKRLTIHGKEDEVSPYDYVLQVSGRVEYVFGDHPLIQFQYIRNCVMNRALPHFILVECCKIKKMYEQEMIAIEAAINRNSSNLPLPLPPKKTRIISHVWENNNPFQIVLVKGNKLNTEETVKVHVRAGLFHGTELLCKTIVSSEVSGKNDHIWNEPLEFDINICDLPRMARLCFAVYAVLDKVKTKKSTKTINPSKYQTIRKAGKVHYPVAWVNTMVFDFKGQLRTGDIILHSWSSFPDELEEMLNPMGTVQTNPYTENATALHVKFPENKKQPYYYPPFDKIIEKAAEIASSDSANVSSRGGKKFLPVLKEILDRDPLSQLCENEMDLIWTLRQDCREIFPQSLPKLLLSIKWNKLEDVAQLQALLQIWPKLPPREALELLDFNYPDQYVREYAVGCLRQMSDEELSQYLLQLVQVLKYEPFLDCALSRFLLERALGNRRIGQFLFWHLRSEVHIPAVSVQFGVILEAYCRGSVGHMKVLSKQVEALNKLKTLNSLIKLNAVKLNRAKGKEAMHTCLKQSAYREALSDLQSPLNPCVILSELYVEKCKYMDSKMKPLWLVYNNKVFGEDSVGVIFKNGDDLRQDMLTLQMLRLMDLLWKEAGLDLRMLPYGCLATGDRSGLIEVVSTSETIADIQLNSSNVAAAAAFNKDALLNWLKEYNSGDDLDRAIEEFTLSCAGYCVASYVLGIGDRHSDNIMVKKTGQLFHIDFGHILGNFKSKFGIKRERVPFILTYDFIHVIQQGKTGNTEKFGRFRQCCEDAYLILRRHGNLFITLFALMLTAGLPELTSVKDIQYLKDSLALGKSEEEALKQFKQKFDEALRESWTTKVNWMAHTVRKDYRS
PI3K-p110β, sequence (P27986 whole entry partner, canonical isoform): as the sequence (P27986 whole entry partner, canonical isoform) above

SMILES | FOLD Ki p110β/p110α (PI3K-p110β) | FOLD Ki p110δ/p110α (PI3K-p110δ) | also measured
Fc1cc(-c2nc(N3CCOCC3)c3oc4ncc(CN5CCC6(CC5)COC6)cc4c3n2)c2cc[nH]c2c1 [Example B, 4-(6-Fluoro-1H-indol-4-yl)-6-(morpholin-4-yl)-12-{2-oxa-7-azaspiro[3.5]nonan-7-ylmethyl}-8-oxa-3,5,10-triazatricyclo[7.4.0.0^2,7]trideca-1(13),2(7),3,5,9,11-hexaene] | ** (** ≥10x < 50x) | *** (*** ≥50x < 100x) | –
Fc1ccc2[nH]ccc2c1-c1nc(N2CCOCC2)c2oc3ncc(CN4CCC5(CC4)COC5)cc3c2n1 [Example D, 4-(5-Fluoro-1H-indol-4-yl)-6-(morpholin-4-yl)-12-{2-oxa-7-azaspiro[3.5]nonan-7-ylmethyl}-8-oxa-3,5,10-triazatricyclo[7.4.0.0^2,7]trideca-1(13),2(7),3,5,9,11-hexaene] | *** (*** ≥50x < 100x) | *** (*** ≥50x < 100x) | –
COC1CN(Cc2cnc3oc4c(N5CCOCC5)nc(-c5c(F)ccc6[nH]ccc56)nc4c3c2)C1 [Example E, 4-(5-Fluoro-1H-indol-4-yl)-12-[(3-methoxyazetidin-1-yl)methyl]-6-(morpholin-4-yl)-8-oxa-3,5,10-triazatricyclo[7.4.0.0^2,7]trideca-1(13),2(7),3,5,9,11-hexaene] | ** (** ≥10x < 50x) | ** (** ≥10x < 50x) | AUC [1, 2]: 2.93 µg·h/mL; AUC(0-inf) [1, 2]: 3.01 µg·h/mL; AUClast [1, 2]: 2.93 µg·h/mL; Cmax [1, 2]: 3.62 µg/mL; Tmax [1, 2]: 4.8 min; Vd [1, 2]: 1.29 L/kg; half-life ([1]; IV, 5 mg/kg, male CD1 mouse plasma, free base, 10% DMSO, 15% Cremophor, 75% Saline): 33 min; AUC [1, 3]: 2.78 µg·h/mL; AUC(0-inf) [1, 3]: 2.83 µg·h/mL; AUC(0-t) [1, 3]: 2.78 µg·h/mL; Cmax [1, 3]: 1.29 µg/mL; Tmax [1, 3]: 30 min; half-life ([1]; PO, 10 mg/kg, male CD1 mouse plasma, free base, 10% DMSO, 15% Cremophor, 75% Saline): 80.4 min; clearance ([1]; plasma, 5 mg/kg, male CD1 mouse plasma, free base): 1.68 L/h/kg; bioavailability ([1]; plasma, oral, 10 mg/kg P.O. and 5 mg/kg I.V., male CD1 mouse, free base, 10% DMSO, 15% Cremophor, 75% Saline, read-out: Oral bioavailability (F)): 47%
COC1CN(Cc2cnc3oc4c(N5CCOCC5)nc(-c5cccc6[nH]c(C(F)(F)F)cc56)nc4c3c2)C1 [Example H, 12-[(3-Methoxyazetidin-1-yl)methyl]-6-(morpholin-4-yl)-4-[2-(trifluoromethyl)-1H-indol-4-yl]-8-oxa-3,5,10-triazatricyclo[7.4.0.0^2,7]trideca-1(13),2(7),3,5,9,11-hexaene] | * (* <10x) | * (* <10x) | –
c1cc(-c2nc(N3CCOCC3)c3oc4ncc(CN5CCCCC5)cc4c3n2)c2cc[nH]c2c1 [Example I in WO 2011/021038, reference compound] | – | – | clearance ([1]; plasma, 5 mg/kg, 5 mg/kg I.V., male CD1 mouse, mesylate salt, 10% DMSO, 90 & saline): 3.96 L/h/kg
COC1CN(Cc2cnc3oc4c(N5CCOCC5)nc(-c5cc(F)cc6[nH]ccc56)nc4c3c2)C1 [Example I, 4-(6-Fluoro-1H-indol-4-yl)-12-[(3-methoxyazetidin-1-yl)methyl]-6-(morpholin-4-yl)-8-oxa-3,5,10-triazatricyclo[7.4.0.0^2,7]trideca-1(13),2(7),3,5,9,11-hexaene] | *** (*** ≥50x < 100x) | *** (*** ≥50x < 100x) | –
COC1CN(Cc2cnc3sc4c(N5CCOCC5)nc(-c5c(F)ccc6[nH]ccc56)nc4c3c2)C1 [Example K, 4-(5-Fluoro-1H-indol-4-yl)-12-[(3-methoxyazetidin-1-yl)methyl]-6-(morpholin-4-yl)-8-thia-3,5,10-triazatricyclo[7.4.0.0^2,7]trideca-1(13),2(7),3,5,9,11-hexaene] | * (* <10x) | * (* <10x) | –
COC1CN(Cc2cnc3oc4c(N5CCOCC5)nc(-c5cc(C(F)(F)F)cc6[nH]ccc56)nc4c3c2)C1 [Example L, 12-[(3-Methoxyazetidin-1-yl)methyl]-6-(morpholin-4-yl)-4-[6-(trifluoromethyl)-1H-indol-4-yl]-8-oxa-3,5,10-triazatricyclo[7.4.0.0^2,7]trideca-1(13),2(7),3,5,9,11-hexaene] | * (* <10x) | * (* <10x) | –
COC1CN(Cc2cnc3oc4c(N5CCOCC5)nc(-c5ccc(F)c6[nH]ccc56)nc4c3c2)C1 [Example N, 4-(7-Fluoro-1H-indol-4-yl)-12-[(3-methoxyazetidin-1-yl)methyl]-6-(morpholin-4-yl)-8-oxa-3,5,10-triazatricyclo[7.4.0.0^2,7]trideca-1(13),2(7),3,5,9,11-hexaene] | * (* <10x) | ** (** ≥10x < 50x) | –
Fc1ccc2[nH]ccc2c1-c1nc(N2CCOCC2)c2oc3ncc(N4CCOCC4)cc3c2n1 [Example O, 4-(5-Fluoro-1H-indol-4-yl)-6,12-bis(morpholin-4-yl)-8-oxa-3,5,10-triazatricyclo[7.4.0.0^2,7]trideca-1(9),2,4,6,10,12-hexaene] | * (* <10x) | * (* <10x) | –
CCN1CCN(Cc2cnc3oc4c(N5CCOCC5)nc(-c5c(F)ccc6[nH]ccc56)nc4c3c2)CC1=O [Example P] | * (* <10x) | ** (** ≥10x < 50x) | –
COC1CN(Cc2cnc3oc4c(N5CCOCC5)nc(-c5cccc6[nH]cc(F)c56)nc4c3c2)C1 [Example Q] | ** (** ≥10x < 50x) | ** (** ≥10x < 50x) | –
